Measured values: patent US20160287710A1 (UNIVERSITY OF UTAH RESEARCH FOUNDATION, priority 2013, published 2016)
≈ marks a conversion by molar mass, not a printed value.

Experiment: Solubility of progesterone in glycol chitin solutions (reverse-phase HPLC)
Format: physicochemical
Details: aqueous with cosolvent or surfactant or cyclodextrin
Procedure: A mixture of methanol/water (80:20; v/v) was used, as the mobile phase at a flow rate of 1 mL per minute. […] FIG. 1.

In the case of CC(=O)[C@H]1CC[C@H]2[C@@H]3CCC4=CC(=O)CC[C@]4(C)[C@H]3CC[C@]12C [Progesterone], the solubility at 24 h (5 wt % glycol chitin solution, 4 °C, thermodynamic from solid) is reported as 148 ± 13.8 µg/mL (≈ 472 µM) and the solubility (in a mixture of PEG-400/water (50:50 v/v)) is reported as roughly 200 µg/mL (≈ 636 µM).
